Reference: patent US20190071416A1, “COMPOUNDS FOR TREATMENT OF CANCER AND EPIGENETICS” (Agency For Science, Technology and Research, priority 2015, published 2019)
Where two headings read alike, the source gives them in different places.

What was measured:
[1] = molecular target: T1, SMYD3 (Homo sapiens, UniProt Q9H7B4); assay: SMYD3 biochemical assay (MTase-Glo, MAP3K2 peptide substrate)
T1 sequence (Q9H7B4 1-428): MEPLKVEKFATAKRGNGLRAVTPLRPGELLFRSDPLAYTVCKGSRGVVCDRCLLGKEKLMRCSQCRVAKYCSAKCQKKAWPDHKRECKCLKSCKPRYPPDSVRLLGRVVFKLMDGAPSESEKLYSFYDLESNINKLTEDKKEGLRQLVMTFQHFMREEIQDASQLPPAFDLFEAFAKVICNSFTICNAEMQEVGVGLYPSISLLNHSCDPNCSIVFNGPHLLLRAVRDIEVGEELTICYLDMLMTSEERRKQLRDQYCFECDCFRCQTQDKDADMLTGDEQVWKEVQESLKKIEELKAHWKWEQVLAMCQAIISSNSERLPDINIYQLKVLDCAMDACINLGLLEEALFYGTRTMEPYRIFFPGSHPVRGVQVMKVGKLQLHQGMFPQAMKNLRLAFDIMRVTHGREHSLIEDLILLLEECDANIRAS
In short: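 Luminescent readout of SAH production (coupled SAH→ATP conversion, MTase-Glo) after SMYD3 reacted 30 min at room temperature with 1.0 µM SAM and 10 µM MAP3K2 peptide, both final. Non-linear regression gave IC50 values.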

[2] = test system: HepG2; assay: Cell proliferation assay (CellTiter-Glo), HepG2; format: cell-based; details: Homo sapiens, HepG2, 72 h; 3 days
Experimental: The cell proliferation assays were tested in several cell lines, including HepG2,HCT116, A549, HPAF-II, CFPAC-1,HuH7, SNU398,Hep3B, and HEK293. All cell lines are from ATCC. HepG2, HPAF-II and HEK293 are cultured in Eagle's MEM media supplemented with fetal bovine serum. HCT116 is cultured in McCoy media supplemented with fetal bovine serum. Huh-7 is cultured in DMEM low glucose (1000 mg/L glucose) with 10% FBS, 1% L-Glutamate and 1% Penicillin/Streptomycin. SNU398 is cultured in RPMI with 10% FBS with 1% L-Glutamate and 1% Penicillin/Streptomycin. Hep3B is cultured in Eagle's MEM with 10% FBS, 1% L-Glutamate and 1% Penicillin/Streptomycin. A549 is cultured in RPMI media supplemented with fetal bovine serum while CFPAC-1 is cultured in IMDM media supplemented with fetal bovine serum. All media and serum are purchased from Gibco (Lifetech). All cells were grown in a temperature controlled incubator at 37° C. and 5% CO2.
Cell proliferation assay was performed using CellTiter-Glo Luminescent Cell Viability Assay (Promega) following manufacturer's instructions. The cell-line of interest was treated with compounds that were serial diluted in its respective media. Plates were incubated for 3 days at 37° C. in 5% CO2. After 3 days, an equal volume of Cell Titer Glo reagent was added. Plates were rocked on a rotator for 2 h. 100 μL of each well were transferred to a 96-well opaque plate, and luminescence emitted was measured with the Tecan Safire II.

[3] = test system: Hep G2 cells; assay: Soft agar colony formation assay; format: cell-based, human
Experimental: Hep G2 cells were purchased from ATCC. Hep G2 cells were maintained in Eagle's Minimum Essential Medium (Sigma, Cat No: #M0643) supplemented with 10% Fetal Bovine Serum (Hyclone, Cat No: SV30087.03), 2 mM L-glutamine, 100 units/mL penicillin and 100 μg/mL streptomycin (Life Technologies, Cat No: 10378-016). The soft agar assays were performed in concordance to the ETC approved method report for soft agar assay (ETC document number: RD0019). Briefly, 600 μL of 0.6% agar was added to 24-well plate (Corning, Cat No: 3738) to form the base layer. This is followed by the addition of 500 μL of 0.36% agar middle layer (containing 10′000Hep G2 cells). Lastly, 500 μL of fresh growth medium (containing the corresponding serially diluted compound) was added above the middle layer. The plates were incubated at 37° C. with 5% carbon dioxide in a humidified incubator for 1 to 2 weeks. 70 μL of thiazolyl blue tetrazolium bromide (5 mg/mL, Sigma Cat No: M5655) was added to each well and the plates were incubated at 37° C. for 2 h. Colonies were counted with GelCount® instrument (Oxford Optronix). The colony counts were plotted against compound concentrations using the Graphpad Prism software. In addition, the software was used to perform non-linear curve fitting and the calculation of IC50.

## CCCOC(=O)N1CCN(C(=O)c2ccc3c(Cl)cc(-c4ccccc4)nc3c2)C[C@H]1C [B019, Propyl (R)-4-(4-chloro-2-phenylquinoline-7-carbonyl)-2-methylpiperazine-1-carboxylate]
[1]; Table 1, MAP3K2 peptide as substrate, read-out: IC50
  IC50: 0.0595 µM
[1]; Table 2, read-out: Biochemical assay IC50
  IC50: 0.0595 µM
[1]; Table 3, MTase assay, MAP3K2 peptide substrate, read-out: IC50
  IC50: 0.06 µM
[2]
  GI50: 18.9 µM
[3]; Hep G2, soft agar
  maximum inhibition: 97.2%
[3]; Homo sapiens, HepG2, Hep G2, soft agar
  IC50: 0.23 µM
[3]; Homo sapiens, HepG2, highest concentration tested (10 μM)
  inhibition at 10 µM: ~100%
